For data set [1], the system named is Schistosoma mansoni. Description: Antischistosomal activity against Schistosoma mansoni couples assessed as decrease in parasite motility at 25 uM measured upto 72 hrs by bright field microscopy. Also on record: scale not given: the % may be the effect or the level left. Format: functional.
For data set [2], the system named is HepG2. Description: Cytotoxicity against human HepG2 cells assessed as reduction in cell vaibility at 100 uM by WST-1 assay. The settings on record: hepg2, 100 µM. Format: toxicity, cell-based. Background: Formazan colour is commonly taken as a measure of viable cells.
Data set [3] relates to LS174T. Kind of data set: Cytotoxicity against human LS174T cells assessed as reduction in cell viability at 100 uM by WST-1 assay. Format: toxicity, cell-based.
For data set [4], the system named is Schistosoma mansoni. Kind of data set: Antischistosomal activity against Schistosoma mansoni couples at 100 uM measured upto 72 hrs by bright field microscopy. Format: functional, organism-based.
In data set [5] the test system is Schistosoma mansoni. Kind of data set: Antischistosomal activity against Schistosoma mansoni couples assessed as decrease in parasite motility at 10 uM measured upto 72 hrs by bright field microscopy. The data set is classed as functional, organism-based.
In data set [6] the test system is Schistosoma mansoni. Kind of data set: Antischistosomal activity against Schistosoma mansoni couples assessed as decrease in pairing stability at 5 uM measured upto 72 hrs by bright field microscopy. Also on record: scale not given: the % may be the effect or the level left. Format: functional.
Data set [7] deals with Schistosoma mansoni. Description: Antischistosomal activity against Schistosoma mansoni couples assessed as inhibition of eggs production at 5 uM measured upto 72 hrs by bright field microscopy. Also on record: scale not given: the % may be the effect or the level left. Format: functional.
Data set [8] relates to Schistosoma mansoni. Description: Antischistosomal activity against Schistosoma mansoni couples assessed as decrease in parasite vitality at 10 uM measured upto 72 hrs by bright field microscopy. The data set is classed as functional.
Data set [9] deals with Schistosoma mansoni. Kind of data set: Antischistosomal activity against Schistosoma mansoni couples assessed as dead worms at 25 uM measured upto 72 hrs by bright field microscopy. The data set is classed as functional.
In data set [10] the test system is Schistosoma mansoni. Description: Antischistosomal activity against Schistosoma mansoni couples assessed as edematous swelling of gut at 25 uM measured upto 72 hrs by bright field microscopy. Format: functional, organism-based.
Data set [11] concerns Schistosoma mansoni. Description: Antischistosomal activity against Schistosoma mansoni couples assessed as inhibition of eggs production at 10 uM measured upto 72 hrs by bright field microscopy. Format: functional, organism-based.
Data set [12] relates to Schistosoma mansoni. Description: Antischistosomal activity against Schistosoma mansoni couples assessed as reduction in pairing stability at 10 uM measured upto 72 hrs by bright field microscopy. Format: functional, organism-based.
Data set [13] relates to HepG2. Description: Cytotoxicity against human HepG2 cells assessed as reduction in cell vaibility at 25 uM by WST-1 assay. Format: toxicity, cell-based. The settings on record: hepg2, 25 µM.
Data set [14] deals with LS174T. Description: Cytotoxicity against human LS174T cells assessed as reduction in cell vaibility at 25 uM by WST-1 assay. Format: toxicity, cell-based.
For data set [15], the system named is Schistosoma mansoni. Description: Antischistosomal activity against Schistosoma mansoni couples assessed as decrease in parasite motility at 15 uM measured upto 72 hrs by bright field microscopy. The data set is classed as functional. Also on record: scale not given: the % may be the effect or the level left.
For data set [16], the system named is Schistosoma mansoni. Description: Antischistosomal activity against Schistosoma mansoni couples assessed as decrease in parasite vitality at 15 uM measured upto 72 hrs by bright field microscopy. The data set is classed as functional. Also on record: scale not given: the % may be the effect or the level left.
In data set [17] the test system is Schistosoma mansoni. Kind of data set: Antischistosomal activity against Schistosoma mansoni couples assessed as decrease in pairing stability at 15 uM measured upto 72 hrs by bright field microscopy. The data set is classed as functional. Also on record: scale not given: the % may be the effect or the level left.
Data set [18] relates to Schistosoma mansoni. Kind of data set: Antischistosomal activity against Schistosoma mansoni couples assessed as inhibition of eggs production at 15 uM measured upto 72 hrs by bright field microscopy. The arrangement: scale not given: the % may be the effect or the level left. The data set is classed as functional.
Data set [19] relates to Schistosoma mansoni. Kind of data set: Antischistosomal activity against Schistosoma mansoni couples assessed as induction of phenotypes at 10 uM measured upto 72 hrs by bright field microscopy. Format: functional, organism-based.
For data set [20], the system named is Schistosoma mansoni. Description: Antischistosomal activity against Schistosoma mansoni couples assessed as tegument damage at 10 uM measured upto 72 hrs by bright field microscopy. Format: functional, organism-based.
Data set [21] concerns Schistosoma mansoni. Kind of data set: Antischistosomal activity against Schistosoma mansoni couples assessed as loss of internal structures at 10 uM measured upto 72 hrs by bright field microscopy. Format: functional, organism-based.
Data set [22] has as its system Schistosoma mansoni. Kind of data set: Antischistosomal activity against Schistosoma mansoni couples assessed as tegument damage at <=10 uM measured upto 72 hrs by bright field microscopy. The data set is classed as functional, organism-based.
For data set [23], the system named is Schistosoma mansoni. Kind of data set: Antischistosomal activity against Schistosoma mansoni couples assessed as gut dilatations at <=10 uM measured upto 72 hrs by bright field microscopy. Format: functional, organism-based.
Data set [24] concerns Schistosoma mansoni. Kind of data set: Antischistosomal activity against Schistosoma mansoni couples assessed as loss of internal structures at <=10 uM measured upto 72 hrs by bright field microscopy. The data set is classed as functional, organism-based.
The test system of data set [25] is Schistosoma mansoni. Kind of data set: Antischistosomal activity against Schistosoma mansoni couples assessed as reduction in parasite motility at <=10 uM measured upto 72 hrs by bright field microscopy. Format: functional. Also on record: scale not given: the % may be the effect or the level left. The note with it: up to 10 µM.
Data set [26] relates to Schistosoma mansoni. Kind of data set: Antischistosomal activity against Schistosoma mansoni couples assessed as gut dilatations at 10 uM measured upto 72 hrs by bright field microscopy. Format: functional, organism-based.
Data set [27] has as its system Schistosoma mansoni. Kind of data set: Antischistosomal activity against Schistosoma mansoni couples assessed as reduction in pairing stability at 100 uM measured upto 72 hrs by bright field microscopy. The data set is classed as functional. Also on record: scale not given: the % may be the effect or the level left.
The test system of data set [28] is Schistosoma mansoni. Description: Antischistosomal activity against Schistosoma mansoni couples assessed as inhibition of eggs production at 100 uM measured upto 72 hrs by bright field microscopy. Format: functional. Also on record: scale not given: the % may be the effect or the level left.
Data set [29] relates to Schistosoma mansoni. Kind of data set: Antischistosomal activity against Schistosoma mansoni couples assessed as decrease in parasite motility at 100 uM measured upto 72 hrs by bright field microscopy. The data set is classed as functional. The arrangement: scale not given: the % may be the effect or the level left.
For data set [30], the system named is HepG2. Kind of data set: Cytotoxicity against human HepG2 cells assessed as reduction in cell vaibility at 50 uM by WST-1 assay. The settings on record: hepg2, 50 µM. Format: toxicity, cell-based.
The subject of data set [31] is LS174T. Kind of data set: Cytotoxicity against human LS174T cells assessed as reduction in cell vaibility at 50 uM by WST-1 assay. Format: toxicity, cell-based.
Data set [32] relates to Schistosoma mansoni. Kind of data set: Antischistosomal activity against Schistosoma mansoni couples at 25 uM measured upto 72 hrs by bright field microscopy. The data set is classed as functional, organism-based.
The subject of data set [33] is Schistosoma mansoni. Kind of data set: Antischistosomal activity against Schistosoma mansoni couples at 10 uM measured upto 72 hrs by bright field microscopy. The data set is classed as functional, organism-based.
The test system of data set [34] is Schistosoma mansoni. Description: Antischistosomal activity against Schistosoma mansoni couples assessed as decrease in parasite motility at 50 uM measured upto 72 hrs by bright field microscopy. The data set is classed as functional.
Data set [35] relates to Schistosoma mansoni. Description: Antischistosomal activity against Schistosoma mansoni couples assessed as pairing instability at 50 uM measured upto 72 hrs by bright field microscopy. The data set is classed as functional.
The subject of data set [36] is Schistosoma mansoni. Kind of data set: Antischistosomal activity against Schistosoma mansoni couples assessed as tegument damage upto 100 uM measured upto 72 hrs by bright field microscopy. The data set is classed as functional, organism-based.
For data set [37], the system named is HepG2. Description: Cytotoxicity against human HepG2 cells assessed as reduction in cell viability upto 100 uM by WST-1 assay. Format: toxicity, cell-based. The settings on record: hepg2, 100 µM.
Data set [38] deals with LS174T. Kind of data set: Cytotoxicity against human LS174T cells assessed as reduction in cell vaibility upto 100 uM by WST-1 assay. Format: toxicity, cell-based.
Data set [39] deals with Schistosoma mansoni. Kind of data set: Antischistosomal activity against Schistosoma mansoni couples assessed as gut dilations at 100 uM measured upto 72 hrs by bright field microscopy. The data set is classed as functional, organism-based.
Data set [40] deals with Schistosoma mansoni. Kind of data set: Antischistosomal activity against Schistosoma mansoni couples assessed as gut dilations at 50 uM measured upto 72 hrs by bright field microscopy. Format: functional, organism-based.
The subject of data set [41] is Schistosoma mansoni. Description: Antischistosomal activity against Schistosoma mansoni couples assessed as detachment of worms from culture dish at 100 uM measured upto 72 hrs by bright field microscopy. The data set is classed as functional, organism-based.

Molecules are shown by their SMILES. Activity calls are given as the source filed them. The calls are words filed in the database; no cut-off is given here.

The text below walks through data of ChEMBL document CHEMBL5331046, “Disulfiram and dithiocarbamate analogues demonstrate promising antischistosomal effects” (Eur J Med Chem, 2022).

For the compound `Cl.O=C([C@@H]1CCCN1)N1CCN(C(=S)SCc2ccc([N+](=O)[O-])cc2)CC1`, the Activity with Schistosoma mansoni [1] is 65%; with HepG2 [2], “Toxic”; in the data set on LS174T [3], “Toxic”; in the data set on Schistosoma mansoni [6], roughly 80%; with Schistosoma mansoni [7], roughly 80%; in the data set with Schistosoma mansoni [9] it was “<=25%”. The Activity entry in the data set with HepG2 [13] and in the data set on LS174T [14] was “Toxic” in each case. For the same compound, the outcome in the data set on Schistosoma mansoni [4], in the data set with Schistosoma mansoni [8], in the data set with Schistosoma mansoni [10], in the data set on Schistosoma mansoni [11] and with Schistosoma mansoni [12] was Active. Further, the result in the data set with Schistosoma mansoni [5] was inactive.
With `C[C@H](N)C(=O)N1CCN(C(=S)SCc2ccc([N+](=O)[O-])cc2)CC1.Cl`, the Activity is recorded as 65% in the data set with Schistosoma mansoni [1]; “Toxic” in the data set on HepG2 [2]; “Toxic” with LS174T [3]; “<=25%” in the data set with Schistosoma mansoni [9]; “Toxic” in the data set on HepG2 [13]; “Toxic” with LS174T [14]. Moreover, the outcome in the data set on Schistosoma mansoni [4], in the data set with Schistosoma mansoni [8], in the data set with Schistosoma mansoni [10], in the data set on Schistosoma mansoni [11] and in the data set with Schistosoma mansoni [12] was Active. Moreover, in the data set with Schistosoma mansoni [5], the result was inactive.
Regarding `O=[N+]([O-])c1ccc(CSC(=S)N2CCN(S(=O)(=O)c3ccccc3)CC2)cc1`, the Activity result in the data set on HepG2 [2] is “Toxic”; in the data set on LS174T [3] it was “Toxic”; with Schistosoma mansoni [15], 50%; in the data set with Schistosoma mansoni [16], 90%; in the data set with Schistosoma mansoni [17], 20%; with Schistosoma mansoni [18] it was 40%. Moreover, in the data set with Schistosoma mansoni [25], the Activity turned out to be 50%. The result in the data set with Schistosoma mansoni [5], with Schistosoma mansoni [19], in the data set on Schistosoma mansoni [20], in the data set on Schistosoma mansoni [21] and with Schistosoma mansoni [26] was Active. The outcome in the data set with Schistosoma mansoni [22], in the data set on Schistosoma mansoni [23] and in the data set on Schistosoma mansoni [24] was inactive.
Take `CCN(CC)C(=S)SCc1ccccc1`: the Activity in the data set with Schistosoma mansoni [27] is 100%; in the data set with Schistosoma mansoni [28] it was 100%; with Schistosoma mansoni [29], 50%; in the data set with Schistosoma mansoni [1], 30%; in the data set on HepG2 [30] it was “Toxic”; with LS174T [31] it was “Toxic”.
For the compound `CC(C)NC(=O)CN1CCN(C(=S)SCc2ccc([N+](=O)[O-])cc2)CC1`, the outcome in the data set with Schistosoma mansoni [4] and with Schistosoma mansoni [32] was Active. Besides, the result in the data set on Schistosoma mansoni [33] was inactive.
As for `CCN(CC)C(=S)SCCC1SCCCS1`, the result in the data set with Schistosoma mansoni [34] and with Schistosoma mansoni [36] was Active. For the same compound, the Activity in the data set on Schistosoma mansoni [29] was less than 40%; with Schistosoma mansoni [35], 0%; in the data set on HepG2 [37] it was “Non-Toxic”; in the data set on LS174T [38], “Non-Toxic”.
Turning to `S=C(SCc1ccccc1)N1CCSCC1`, the Activity was roughly 45% in the data set on Schistosoma mansoni [34], 45% in the data set on Schistosoma mansoni [29], “Non-Toxic” with HepG2 [2] and “Non-Toxic” in the data set on LS174T [3]. The result in the data set on Schistosoma mansoni [39], in the data set on Schistosoma mansoni [40] and in the data set on Schistosoma mansoni [41] was Active.
